What was measured:
WT DRG explants = assay: Axonal outgrowth of dorsal root ganglia (DRG) explants; details: 50 nM, 4 days post culture
Experimental: Postnatal (P4-5) primary mouse DRG from WT littermate and BACE1 KO pups were established. Axonal outgrowth at 2 and 4 days post culture were measured.
Postnatal day 4-5 dorsal root ganglia (DRG) were dissected out of WT and BACE1 KO mice, and were maintained in neurobasal medium containing 2% B27 supplement and 50 ng/ml NGF (all reagents from Invitrogen, Carlsbad, Calif.). In some of the WT DRG explants, 50 nM-1 μM BACE1 inhibitor IV was added daily to the media. At least 8 explants were used for each condition. Axonal outgrowth of the DRG was monitored daily under phase-contrast microscopy, and images were acquired with Openlab software at 2 and 4 days post culture. The axon lengths were measured from the borders of the explants borders to the tips of axons using ImageJ (http://rsb.info.nih.gov/ij/).

WT mice = assay: Sciatic nerve crush in WT mice with systemic BACE1 inhibitor infusion via Alzet pumps; format: in vivo, mouse
Description: The inhibitors were systemically administered via subcutaneous catheters from Alzet pumps implanted in the interscapular space for 7 or 15 days.
Mice were deeply anesthetized with isoflurane and left sciatic nerves in the mid thigh or at the sciatic notch level were exposed and crushed by pulling tight a loop of 8-0 nylon black sutures for 30-40 seconds. The crush sites were marked with a 10-0 nylon black suture going through the epineurium only. For sciatic nerve transection, a small ˜2 mm piece of nerve was dissected out and the two nerve stumps were turned away from each other to prevent axonal regeneration to distal stumps. The distal stumps and contralateral nerves were collected 1-15 days post-transection.
Alzet pumps were filled, primed, and implanted as previously described in Farah, J. Neurosci. […] Neurol. […] The latter compound was synthesized by the NeuroTranslational team at the Brain Science Institute at Johns Hopkins University. Both inhibitors were dissolved in DMSO. According to the manufacturer's data, the pump continuously supplied 1-30 μg/hour of inhibitor for 7 days. To minimize the delay between implantation and the onset of release, the filled pumps were incubated in 1×PBS at 37° C. for 4 hours immediately before implantation. The mice were anesthetized by inhalation of isoflurane, and an incision, about 1.5 cm long, was made in the skin on top of the interscapular space. A filled Alzet pump was implanted subcutaneously into each mouse and incisions were closed with 9 mm stainless steel wound clips.
For fluorescent microscopy and immunostaining, mice were deeply anesthetized with 10% chloral hydrate and killed by transcardial perfusion with 1×PBS followed by 2% paraformaldehyde in […] phosphate buffer, pH 7.4, for 10-15 minutes. Tissues were then postfixed in the same fixative for 4-16 hr at 4° C. Sciatic nerves and gastrocnemius muscles were cryoprotected in 30% sucrose in 1×PBS overnight and quickly frozen in cold 2-methylbutane. Tissues were frozen sectioned on a cryostat at thickness of 10 or 20 μm for sciatic nerves and 50 μm for gastrocnemius muscles. In addition, the hind feet were decalcified, cryoprotected in 30% sucrose in 1×PBS, and sectioned at 50 μm thickness. Sciatic nerves were sectioned longitudinally using a Leica cryostat (model CM3050S, Leica Microsystems, Buffalo Grove, Ill.). Gastrocnemius muscles and foot were cross-sectioned by a freezing sliding microtome (Microm HM 450, Thermo Scientific, Waltham, Mass.).
To visualize YFP-positive degenerating and regenerating axons, animals were perfused as described above and sciatic nerves were collected. Whole-mounted sciatic nerves were imaged under a confocal microscope and Z-stack images were collected through the depth of the nerves.
For ultrastructural analyses, nerves were postfixed in OsO4 and embedded in Epon. Cross sections, at 1 μm thickness, were stained for toluidine blue and examined under light microscopy with 100× oil-immersion objective. 70 nm thin sections were obtained and stained for citrate/uranyl acetate. Electron micrographs were acquired using a Hitachi 7600 or Zeiss Libra transmission electron microscope.

[1] = Paclitaxel administration, body weight; format: in vivo, mouse; details: 30 mg/kg intravenously via tail vein, 3 times a week for 2 weeks; WT and BACE1 KO mice
Experimental: Paclitaxel (LC laboratories) was dissolved in 100% ethonal. Equal volumes of paclitaxel solution and cremophor (Sigma-Aldrich, St. Louis, Mo.) were vigorously vortexed for 10 minutes. Ice cold saline (80% of the final volume) was added to freshly made paclitaxel/cremophor solution immediately before injection. 30 mg/kg body weight of paclitaxel in this solution was injected intravenously via tail vein at 3 times a week for 2 weeks.

## C[C@@H](NC(=O)c1cc(C(=O)N[C@@H](Cc2ccccc2)[C@H](O)CNC2CC2)cc(N(C)S(C)(=O)=O)c1)c1ccccc1 [BACE1 inhibitor IV]
WT DRG explants
  increase of axonal outgrowth of WT DRG explants: 98.0%
WT mice; mouse, in vivo
  YFP-positive axonal debris in whole-mounted YFP-WT nerve: more fragmented
  post-phagocytic macrophages in electron micrograph of WT nerve: More post-phagocytic macrophages
  regenerated YFP-positive axons in whole-mounted YFP-WT nerve: numerous regenerated YFP-positive axons
  regenerated axons in electron micrograph of WT nerve: more regenerated axons

## CC(=O)O[C@H]1C(=O)[C@@]2(C)[C@H]([C@H](OC(=O)c3ccccc3)[C@]3(O)C[C@H](OC(=O)[C@H](O)[C@@H](NC(=O)c4ccccc4)c4ccccc4)C(C)=C1C3(C)C)[C@]1(OC(C)=O)CO[C@@H]1C[C@@H]2O [Paclitaxel, paclitaxel]
[1]
  weight loss: no significant weight loss

## COc1ccc([C@]2(c3ccc(F)c(-c4cccnc4F)c3)N=C(N)N(C)C2=O)cc1C [WAY 258131]
WT mice; 2 weeks after sciatic nerve crush and treatment
  β tubulin III staining of intra-plantar nerves of WT foot: β tubulin III positive fibers are regenerated axons
